Assays:
[1] = U.S. Pat. No. 5,731,347; Phase 2 clinical study; cited from earlier work
[2] = tested on: most microorganisms, including gram negative bacteria, fungal spores, and viruses; assay type: cell-based
[3] = tested on: viruses; assay type: cell-based
[4] = tested on: flu viruses; details: cited from earlier work
[5] = tested on: viruses; details: cited from earlier work
[6] = Gargle and nasal spray with ClO2 solution in people with sore throat, cold or sinusitis; details: in vivo

| Compound | therapy for canker sores in the mouth [1] | time to kill most microorganisms [2] | deactivation of all viruses [3] | kill of all flu viruses [4] | inactivation of all viruses tested [5] | inflammation and discomfort noted by users [6] | toxicity or irritation to the mucus membranes [6] |
| --- | --- | --- | --- | --- | --- | --- | --- |
| CC(O)C(=O)O (stereo not shown) [lactic acid] | excellent therapy | – | – | – | – | – | – |
| chlorine dioxide | – | about one | deactivated in seconds | in a few seconds | inactivated within a minute | near-immediate reductions | non toxic or non-irritating |
